What all share (format): cell-based, human
One experiment deals with PNT2 cells. Description: Proliferation assay (cell counting). The settings on record: non-cancerous PNT2, even at a maximal dose. How it is done:
(§1) At 24 h, 48 h, 72 h and 96 h following addition of increasing concentrations of the tested compound in DMSO or DMSO alone, cells were trypsinized, pelleted by centrifugation at 1200 rpm for 5 min, resuspended in 500 μl of culture medium and counted in an hemocytometer.

Experiment [1] deals with C4-2 cells. As to the kind of experiment: Proliferation assay (cell counting). The settings on record: C4-2, maximal dose used. How it is done:
as §1

The test system of experiment [2] is LNCaP cells. Description: Proliferation assay (cell counting). The settings on record: maximal dose used. How it is done:
as §1

Experiment [3] relates to C4-2 cells. Description: Phospho-kinase array and immunoblot. The protocol:
(§2) Protein extracts and sodium dodecyl sulfate (SDS)-polyacrylamide gel electrophoresis (PAGE), electrotransfer and immunoblotting were performed as previously described (34). The primary antibodies rabbit anti-AMPK, rabbit anti-phospho AMPK (Thr172), rabbit anti-Akt and rabbit anti-phospho Akt were purchased from Cell signalling Technology (Ozyme, Saint Quentin Yvelines, France). The primary antibody mouse anti-tubulineα was purchased from Lab Vision (Thermo Fisher Scientific, Microm France, Francheville, France). The primary antibodies rabbit anti-p44/p42 MAPK, rabbit anti-phospho p44/p42 MAPK (Thr202/Tyr204), mouse anti-GSK3α/β, and rabbit anti-phospho GSK3α/β were kindly provided by Dr Gilles Freiss. LNCaP and C4-2 cells treated with the tested compound at 25 μM were analyzed for the relative phosphorylation of 46 kinase phosphorylation sites using human phospho-kinase array kit (Proteome Profiler™) according to the manufacturers' recommendations (R&D systems Europe, Lille, France).
A general note: A western blot detects proteins with antibodies after separation by electrophoresis.

The subject of experiment [4] is LNCaP cells. As to the kind of experiment: Phospho-kinase array and immunoblot. The protocol:
as §2

Experiment [5] deals with C4-2 cells. As to the kind of experiment: Flow cytometry analysis of cell cycle. The settings on record: CaP cells (C4-2); with a decrease in the S phase. The protocol: (§3) Cells were then rinsed in PBS, pelleted at 400 g for 5 min and maintained on ice for 20 min before resuspension in a […] propidium iodide (Sigma) solution. Cells were kept overnight at 4° C. and the percentages of cells in G1, S and G2-M phases of the cell cycle were measured with a Coulter Epics XL™ flow cytometer (Becton Dickinson) using 488-nm laser excitation. For apoptosis experiment, MEFs were treated with the tested compound at 25 μM for 24 h, then rinced in PBS, pelleted at 400 g for 5 min and stained with annexinV-FITC (Roche Diagnostics, Meylan, France) for 15 min at 4° C. The percentage of annexin positive cells was immediately analysed using 488-nm laser excitation.
Background: Flow cytometry measures light scatter and fluorescence of single cells or particles in a stream.

Experiment [6] has as its system LNCaP cells. Description: Flow cytometry analysis of cell cycle. The settings on record: CaP cells (LNCaP); with a decrease in the S phase. How it is done: as §3

This note sets out measurements from patent publication US20130012709A1, “NOVEL INHIBITORS OF STEAROYL-CoA-DESATURASE-1 AND THEIR USES” (CENTRE NATIONAL DE LA RECHERCHE SCIENTIFIQUE, priority 2009, published 2013).

Each structure is given as a SMILES string.

Take `COc1ccc(Br)c(C(=O)N2CCN(c3ccc(C(=O)NCCCc4ccccc4)cn3)CC2)c1` [BZ36]: in the experiment with PNT2 cells, the effect in proliferation result is “no effect”. Besides, the “inhibition of cell proliferation” value in the experiment with C4-2 cells [1] and in the experiment with LNCaP cells [2] was 100% in each case. For the same compound, the “phosphorylation of GSK3a/13” value with C4-2 cells [3] (C4-2) and with LNCaP cells [4] was “abrogated” in each case. In addition, the “phosphorylation of AMPKcc” value is on record as “increased” in the experiment with C4-2 cells [3] (C4-2, 25 μM) and “increased” with LNCaP cells [4] (25 μM). Besides, the “Akt phosphorylation (5473/T308)” value is “decrease” in the experiment with C4-2 cells [3] (C4-2, 25 μM, vs non-treated cells) and “decrease” in the experiment with LNCaP cells [4] (25 μM, vs non-treated cells). Also, the “phosphorylation of ERK1/2” value in the experiment with C4-2 cells [3] (C4-2, immunoblot) was “decreased phosphorylation”; in the experiment on LNCaP cells [4] (immunoblot) it was “decreased phosphorylation”. For the same compound, the “phosphorylation of MEK1/2 (S218/5222, S222/S226)” value in the experiment on C4-2 cells [3] (C4-2, vs control cells) is “Significant decreases”. The cell cycle distribution result in the experiment with C4-2 cells [5] and with LNCaP cells [6] was “accumulation of cells in the G0/G1 phase” throughout.
